In US20250074910A1, “MENIN INHIBITOR AND USE THEREOF” (HITGEN INC., priority 2021, published 2025):
“And” between values parts separate entries of the source, which are not always exact repeats. Equal entries are not always repeated. Where two headings read alike, the source gives them in different places.

Experiments:
[1] = biological target: Menin/MLL-4-43 peptide interaction (Homo sapiens (Human), UniProt O00255); assay: Menin-MLL interaction inhibitory activity assay (fluorescence polarization competition); format: binding; conditions: FITC-MLL4-43-peptide, Menin recombinant protein
Procedure, shortened: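 Menin (8 nM solution) was preincubated 15 min with compound, then FITC-MLL4-43 peptide (10 nM solution) was added and shaken for 60 min at 25 °C. The buffer was 50 mM Tris pH 7.5, 50 mM NaCl, 1 mM DTT. IC50 was derived from fluorescence polarization read at 485/520 nm.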

MV4-11 = assay: Cell proliferation inhibition (CellTiter-Glo), MV4-11; format: cell-based; conditions: MV4-11 cells
Procedure, shortened: (§1)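 Leukemia cells were seeded at 5,000-20,000 cells/well and exposed to test compound at final concentrations from 1 nM to 10 μM. After 72-168 h at 37° C and 5% CO2, viability was measured by CellTiter-Glo luminescence following 10 min at room temperature, and IC50 values were obtained from fitted curves.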

MOLM-13 = assay: Cell proliferation inhibition (CellTiter-Glo), MOLM-13; format: cell-based; conditions: MOLM-13 cells
Description: Test Example 2: Test of the Inhibitory Ability of Menin-MLL Interaction Inhibitors on Cell Proliferation
The inhibitory ability of the compounds of the present disclosure on the proliferation of tumor cell lines (including cell lines containing MLL fusion protein such as MV4-11, MOLM-13, THP-1 and NOMO-1, control cell lines without MLL fusion protein such as HL-60, K562 and MOLM-16, and cell lines containing NPM1 mutation such as OCI-AML3) was evaluated by using the cell viability analysis method. The cells were plated in 96-well plates at a certain concentration (e.g., 5,000-20,000 cells/well), and then an equal volume of culture medium containing 2 times the final concentration of the test compound (the final concentration ranging 10 from 1 nM to 10 μM) was added. The plates were placed in an incubator and cultured at 37° C. and 5% CO2 for 72-168 h. Before the test, an equal volume of CellTiter-Glo® Luminescent reagent was added, and the plate was incubated at room temperature for 10 min before detection using an ELISA reader (BMG LABTECH). The data were analyzed using GraphPad Prism software to obtain the IC50 value and compound fitting curve. The control compound 1 was prepared by referring to the method of Example 64 in WO2017214367.

OCI-AML3 = assay: Cell proliferation inhibition (CellTiter-Glo), OCI-AML3 (NPM1 mutation); format: cell-based; conditions: OCI-AML3 cells
Procedure, shortened: as §1

[2] = Stability in mouse liver microsomes; format: in vitro ADME; conditions: liver microsomes, pH 7.4, 0.5 mg/mL microsomal protein, 1.00 μM compound, NADPH, read-out: Half life T1/2, mouse liver microsomes
Description: (§2) Test Example 3: Test of Stability of Compounds in Liver Microsome
(§3) Test purpose: To determine the stability of some of the compounds of the present disclosure in mouse, dog and human liver microsomes by LC-MS/MS method.
(§4) Test materials: The test drugs were in-house prepared example compounds of the present disclosure; the positive reference compound SNDX-5613 was prepared by the method of Example 253 in patent WO2017214367; the control compound 1 was prepared by the method of Example 64 in WO2017214367; liver microsomes were purchased from CORNING.
(§5) The total volume of each incubation system was approximately 45 μL, and the medium was 100 mM phosphate buffer (PBS, pH 7.4), including liver microsomal protein at a final concentration of 0.5 mg/mL, 1.00 μM compound and 2.00 mM NADPH, and the organic phase content was <1%. Incubation was performed in a 37° C. incubator, and 135 μL of ice-cold acetonitrile was added after 0, 5, 15, 30 and 60 min of reaction to terminate the reaction. The positive control group was incubated with 1.00 μM Ketanserin, 0.5 mg/mL liver microsomal protein and 2.00 mM NADPH in a 37° C. incubator for 0, 5, 15, 30 and 60 min respectively, and then 135 μL of ice-cold acetonitrile was added to terminate the reaction. The 96-well plates were shaken at 600 rpm for 10 min and then centrifuged at 4700 rpm at 4° C. for 15 min. 80 μL of supernatant was mixed with 320 μL of pure water, and the remaining amount of the compound was detected by LC-MS/MS method. The in vitro half life (T½) and intrinsic clearance (CLint) were calculated according to the following formula:
(§6) Intrinsic clearance (Clint)=(0.693/T1/2)×(1/liver microsome concentration)×conversion factor. k is the linear regression slope of the remaining percentage of the ln compound-incubation time.

[3] = Stability in human liver microsomes; format: in vitro ADME; conditions: human, liver microsomes, pH 7.4, Human; 0.5 mg/mL microsomal protein, 1.00 μM compound, NADPH; read-out: Half life T1/2, human liver microsomes
Description: as §2, §3, §4, §5, §6

[4] = Stability in dog liver microsomes; format: in vitro ADME; conditions: dog, liver microsomes, pH 7.4, Dog; 0.5 mg/mL microsomal protein, 1.00 μM compound, NADPH; read-out: Half life T1/2, dog liver microsomes
Description: as §2, §3, §4, §5, §6

[5] = Pharmacokinetics test in mouse; format: in vivo, ICR mice; conditions: mice, p.o. 10 mg/kg
Text: Test Example 4. In Vivo Pharmacokinetic Study
Test purpose: To determine the pharmacokinetic properties of some of the example compounds of the present disclosure in mice, rats and dogs after single intravenous injection (i.v.) and oral gavage (i.g.) administration by LC-MS/MS method.
Research methods: An appropriate amount of compound was weighed and prepared into a transparent clear solution of a certain concentration using 0.9% sodium chloride injection and 1.5 equivalents of 1M HCl aqueous solution based on the molar number of the compound. After SPF male ICR mice, SPF male SD rats, and male beagle dogs were fasted overnight, the test compound solution was given by intravenous injection and oral gavage at the corresponding dose. Anticoagulated whole blood of the test animals was collected at 5 min, 15 min, 30 min, 1 h, 2 h, 4 h, 8 h, and 24 h after administration, and plasma was separated. Plasma samples at each time point were detected by LC-MS/MS, and the plasma concentration of the compound was determined by the standard curve correction method. Phoenix WinNonlin 5.2 non-compartmental model was used to calculate the pharmacokinetic parameters of terminal elimination half-life (t½), blood peak concentration (Cmax), area under the concentration-time curve (AUC), clearance (CL), and bioavailability (F %), which was directly obtained from the serum concentration results. Blood drug concentration and pharmacokinetic parameters are expressed as mean±standard deviation (X±SD). The specific test protocols for each species are as follows.
Pharmacokinetics Test in Mouse
Test animals: SPF male ICR mice, weighing 25-30 g, 12 mice/compound, purchased from Chengdu Dossy Experimental Animal Co., Ltd.
Test design: On the day of the test, ICR mice were randomly divided into groups according to body weight, fasted but with free water for 12-14 h one day before administration, and fed 2 h after administration.
Preparation of test compound solution: The concentration of the test compound for oral gavage was 1 mg/mL. An appropriate amount of compound was weighed and prepared into a 1 mg/mL transparent clear solution using 0.9% sodium chloride injection and 1.5 equivalents of 1M HCl aqueous solution. The concentration of the test compound for intravenous injection was 0.2 mg/mL. The 1 mg/mL transparent clear solution was diluted to a concentration of 0.2 mg/mL using 0.9% sodium chloride injection. The volume of 1 M HCl solution added was calculated as: volume of 1 M HCl solution added […]=weighed amount of compound (mg)/molecular weight×1.5×1000. The amount added during preparation must not exceed the calculated value.
The test substance was administered as follows: intravenous injection: 1 mg/kg of dose, 5 mL/kg of volume, 6 mice; oral gavage: 10 mg/kg of dose, 10 mL/kg of volume, 6 mice.
Sample collection: Blood (40-50 μl) was collected in anticoagulant tubes sprayed with EDTA-K2 through the orbital venous plexus at 5 min, 15 min, 30 min, 1 h, 2 h, 4 h, 8 h, and 24 h after administration, and centrifuged at 10,000 rpm for 20 min within 1 h (the blood was saved on wet ice before and after centrifugation). The supernatant, which was plasma, was collected and frozen in a refrigerator at −20° C. or below for LC-MS/MS analysis of Full PK of male ICR mice (2 mice per group, 4 blood collection time points per mouse, crossover).

[6] = biological target: hERG potassium ion channel (Homo sapiens (Human), UniProt Q12809); assay: hERG potassium channel effect test (manual patch clamp, HEK293 cells overexpressing hERG); format: cell-based; conditions: for inhibition at 30 μM: human, HEK293 cells overexpressing hERG potassium ion channels, read-out: Average inhibition rate of hERG current at the highest compound tested concentration; for IC50: manual patch clamp, highest test concentration 30 μM
Description: Test Example 6: hERG Potassium Channel Effect Test
The hERG inhibition test was performed on some of the example compounds of the present disclosure using the manual electrophysiological patch clamp method. The cell line was derived from HEK293 cells that overexpressed hERG potassium ion channels. The specific experimental protocol was developed by PharmaCore Labs with reference to literature published in peer-reviewed journals and was performed by PharmaCore Labs in accordance with its standard experimental operating procedures. The highest test concentration was 30 μM.

[7] = male, ICR, mouse, plasma, po, 10 mg/kg

Chain of Menin/MLL-4-43 peptide interaction (O00255 whole entry, species assumed): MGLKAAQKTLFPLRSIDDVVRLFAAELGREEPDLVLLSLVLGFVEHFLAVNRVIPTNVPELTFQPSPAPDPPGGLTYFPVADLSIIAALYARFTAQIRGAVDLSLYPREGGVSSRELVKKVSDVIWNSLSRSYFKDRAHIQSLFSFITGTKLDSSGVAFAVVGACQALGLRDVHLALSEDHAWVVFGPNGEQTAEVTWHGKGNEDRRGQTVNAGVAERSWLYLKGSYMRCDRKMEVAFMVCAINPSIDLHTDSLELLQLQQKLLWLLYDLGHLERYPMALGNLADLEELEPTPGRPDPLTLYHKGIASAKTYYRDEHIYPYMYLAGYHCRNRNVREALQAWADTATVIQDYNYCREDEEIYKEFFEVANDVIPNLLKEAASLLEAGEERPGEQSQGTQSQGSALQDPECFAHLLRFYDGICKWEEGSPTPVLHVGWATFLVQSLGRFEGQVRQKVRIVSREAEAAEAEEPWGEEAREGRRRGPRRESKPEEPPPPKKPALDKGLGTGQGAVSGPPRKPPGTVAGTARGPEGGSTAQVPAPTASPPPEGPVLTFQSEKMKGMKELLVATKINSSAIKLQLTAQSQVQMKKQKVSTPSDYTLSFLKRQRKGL
Chain of hERG potassium ion channel (Q12809 whole entry): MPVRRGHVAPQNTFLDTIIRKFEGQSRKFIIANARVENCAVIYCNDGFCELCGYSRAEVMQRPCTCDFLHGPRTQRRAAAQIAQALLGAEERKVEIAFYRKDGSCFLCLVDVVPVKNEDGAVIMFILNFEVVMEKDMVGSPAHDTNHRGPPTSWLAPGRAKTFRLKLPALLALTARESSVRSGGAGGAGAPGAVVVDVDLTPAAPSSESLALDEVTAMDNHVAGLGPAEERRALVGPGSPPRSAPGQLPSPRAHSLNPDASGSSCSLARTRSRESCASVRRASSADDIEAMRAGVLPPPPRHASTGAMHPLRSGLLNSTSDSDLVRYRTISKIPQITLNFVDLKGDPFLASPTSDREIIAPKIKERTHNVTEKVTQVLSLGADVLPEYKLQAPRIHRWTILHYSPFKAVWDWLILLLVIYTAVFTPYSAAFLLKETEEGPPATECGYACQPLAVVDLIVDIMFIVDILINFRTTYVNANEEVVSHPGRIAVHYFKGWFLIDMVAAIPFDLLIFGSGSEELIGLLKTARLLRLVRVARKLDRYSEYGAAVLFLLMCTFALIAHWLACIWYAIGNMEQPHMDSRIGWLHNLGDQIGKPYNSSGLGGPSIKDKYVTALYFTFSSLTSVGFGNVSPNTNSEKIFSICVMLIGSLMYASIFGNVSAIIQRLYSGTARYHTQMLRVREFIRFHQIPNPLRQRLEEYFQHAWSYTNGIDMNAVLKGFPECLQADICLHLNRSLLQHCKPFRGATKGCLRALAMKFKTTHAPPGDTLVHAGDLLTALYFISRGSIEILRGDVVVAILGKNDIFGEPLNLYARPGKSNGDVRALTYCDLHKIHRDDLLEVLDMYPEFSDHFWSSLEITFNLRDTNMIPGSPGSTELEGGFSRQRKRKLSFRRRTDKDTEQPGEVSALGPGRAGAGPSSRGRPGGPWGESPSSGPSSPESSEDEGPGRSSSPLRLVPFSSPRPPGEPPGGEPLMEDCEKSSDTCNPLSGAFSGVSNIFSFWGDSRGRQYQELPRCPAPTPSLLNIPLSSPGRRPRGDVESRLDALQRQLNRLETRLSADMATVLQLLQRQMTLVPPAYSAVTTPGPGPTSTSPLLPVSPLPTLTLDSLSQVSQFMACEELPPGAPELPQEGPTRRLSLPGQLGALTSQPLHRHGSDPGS

IC50 [1]	GI50 (MV4-11; 72 h)	GI50 (MOLM-13; 168 h)	GI50 (OCI-AML3; 168 h)	half-life at 1 μM [2]	half-life at 1 μM [3]	half-life at 1 μM [4]	GI50 (MV4-11; Homo sapiens, MV4-11, 72 h)	GI50 (MOLM-13; Homo sapiens, MOLM-13, 168 h)	GI50 (OCI-AML3; Homo sapiens, OCI-AML-3, 168 h)	AUC(0-t) [5, 7]	half-life [5, 7]	Cmax ([5]; male, ICR, mouse, plasma, po, 10 mg/kg, read-out: Cmax)	AUClast [5]	Cmax [5]	T1/2 [5]	F, % ([5]; 1 mg/kg for intravenous injection)	Compound	inhibition at 30 μM [6]	IC50 [6]
10.3 nM	9.5 nM	34.3 nM	20.1 nM	1.65 h	0.479 h	1.17 h											CC(C)N(C(=O)c1cc(F)ccc1Oc1nncnc1N1CC2(CCN(C[C@H]3CC[C@]4(CC3)CC(C(C)(C)O)C(=O)N4)CC2)C1)C(C)C (single isomer, unassigned) [Example 59-1b]		
34 nM							47.8 nM	46.5 nM	242 nM	7700 ng·h/mL	1.37 h	2620 ng/mL	8285 ng·h/mL	2535 ng/mL	1.91 h	84% and 72%	CC(C)N(C(=O)c1cc(F)ccc1Oc1cncnc1N1CC2(CCN(C[C@H]3CC[C@@]4(CCC(=O)N4)CC3)CC2)C1)C(C)C [Example 5]	33.1%	> 30000 nM
62.1 nM				> 2 h	1.3 h	1 h	137 nM	389 nM	323 nM								CCN(C(=O)c1cc(F)ccc1Oc1nncnc1N1CC2(CCN(C[C@H]3CC[C@@]4(CCC(=O)N4)CC3)CC2)C1)C(C)C [Example 7]		
67.2 nM				1.11 h	0.786 h	1.56 h	197 nM	96.4 nM	142 nM								CC(C)N(C(=O)c1cc(F)ccc1Oc1nncnc1N1CC2(CCN(C[C@H]3CC[C@@]4(CCC(=O)N4)CC3)CC2)C1)C(C)C [Example 8]		
				> 2 h	1.35 h	> 2 h	13.2 nM	33.1 nM	28.5 nM								CCN(C(=O)c1cc(F)ccc1Oc1nncnc1N1CC2(CCN(C[C@H]3CC[C@]4(CC3)CC(COC)(COC)C(=O)N4)CC2)C1)C(C)C [Example 19]	12.8%	> 30000 nM
7.4 nM				1.33 h	0.618 h	1.04 h	19.2 nM	162 nM	94 nM								CCN(C(=O)c1cc(F)ccc1Oc1nncnc1N1CC2(CCN(C[C@H]3CC[C@]4(CC3)CC(C)(C)C(=O)N4)CC2)C1)C(C)C [Example 26]		
12.9 nM				> 2 h	> 2 h	> 2 h	88.3 nM	354 nM	183 nM								CCN(C(=O)c1cc(F)ccc1Oc1nncnc1N1CC2(CCN(C[C@H]3CC[C@]4(CC3)C[C@H](COC)C(=O)N4)CC2)C1)C(C)C [Example 37-1]	13.2%	> 30000 nM
3.3 nM				> 2 h	1.09 h	1.5 h	15.2 nM	46.5 nM	40.9 nM								CCN(C(=O)c1cc(F)ccc1Oc1nncnc1N1CC2(CCN(C[C@H]3CC[C@]4(CC3)C[C@@H](COC)C(=O)N4)CC2)C1)C(C)C [Example 37-2]		
10.8 nM							25.5 nM	52.7 nM	64.1 nM								CC1C[C@]2(CC[C@@H](CN3CCC4(CC3)CN(c3ncnnc3Oc3ccc(F)cc3C(=O)N(C(C)C)C(C)C)C4)CC2)NC1=O (stereo partly drawn) [Example 41-1]	13.2%	> 30000 nM
2.5 nM				> 2 h	0.618 h	1.53 h	12.7 nM	54.1 nM	48.4 nM								CCN(C(=O)c1cc(F)ccc1Oc1nncnc1N1CC2(CCN(C[C@H]3CC[C@]4(CC3)CC3(CCOCC3)C(=O)N4)CC2)C1)C(C)C [Example 45]		
